Assay results as given in PMC9428149, “Tackling recalcitrant Pseudomonas aeruginosa infections in critical illness via anti-virulence monotherapy” (Nature Communications, 2022).
Like-named read-outs stand apart in the source and are kept apart here.

Assays:
[1] = test system: pqsA promoter (PA14 PpqsA-GFPASV); test: pqsA-GFP reporter expression; format: cell-based, Pseudomonas aeruginosa; conditions: PA14 PpqsA-GFPASV; 50µM per b210 (method b76 says 10 µM)
Description: The expression levels of pqsA, which is representative of the pqsABCDE operon transcription, were monitored in the presence of the MvfR inhibitors using PA14 cells containing the PpqsA-GFPASV, a reporter construct of the pqsA promoter fused to a short half-life GFP gene in, such that quantitative quenching of fluorescence corresponds to pqsA promoter repression[22],[32],[48]. […] GFP fluorescence levels were measured at λex = 485 nm/λem = 535 nm after 10 seconds of shaking every 15 min up to 12 h. The IC50 of PpqsA-GFP expression levels was performed as above using the same 13 different concentrations (0.0122–50 μM) for each of the 13 compounds tested.

[2] = test system: pyocyanin production in PA14; test: Pyocyanin production assay; conditions: PA14; 50µM of each inhibitor (method says 10 μM); vs vehicle
[3] = test system: MvfR-regulated small molecules in PA14; test: Production of HAQs, 2-AA, DHQ and AA in PA14 cultures (LC-MS); conditions: PA14, 50µM inhibitor; for % Production AA: anthranilic acid, precursor control
MvfR protein (MvfRC87) = target: T1, MvfR protein (MvfRC87) (Pseudomonas aeruginosa, UniProt Q9I4X0); format: binding; conditions: SPR
T1 construct: The MvfRC87 protein purified as in Xiao et. al., 2006; made in house
T1 sequence (Q9I4X0 87-332): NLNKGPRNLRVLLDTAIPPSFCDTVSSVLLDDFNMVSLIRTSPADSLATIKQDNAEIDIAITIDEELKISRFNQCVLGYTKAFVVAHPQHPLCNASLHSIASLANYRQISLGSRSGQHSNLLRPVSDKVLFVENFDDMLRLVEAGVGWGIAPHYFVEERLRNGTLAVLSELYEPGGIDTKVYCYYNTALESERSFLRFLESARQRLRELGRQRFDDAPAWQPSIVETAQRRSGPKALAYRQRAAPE
Description: The selected compounds were tested for their ability to bind to MvfR. Target validation was carried out by using surface plasmon resonance (SPR). The MvfRC87 protein purified as in Xiao et. al., 2006[33] was covalently immobilized on a CM7 Series S sensor chip using an amine coupling reagent kit (GE Healthcare) at the range level of 3000 to 5000 response units (RU). RU was analyzed by Biacore T200 evaluation software 2.0 (GE Healthcare). The relative response units (RUs) 5 seconds before the end of the association were extracted from the double-reference-corrected sensor grams at different concentrations. These responses were plotted against their respective concentrations for MvfR inhibitor alone and in the presence of native MvfR ligand PQS and compared to the calculated responses for the mixture expected for different binding sites.

SMILES	% Production pqsA-GFP [1]	% Production Pyocyanin [2]	% Production 2-AA [3]	% Production DHQ [3]	% Production HHQ [3]	% Production HQNO [3]	% Production PQS [3]	% Production AA [3]	Response Unit (RU) (MvfR protein (MvfRC87); Concentration 1.00E-05 M)	Response Unit (RU) (MvfR protein (MvfRC87); Concentration 1.00E-06 M)	Response Unit (RU) (MvfR protein (MvfRC87); Concentration 1.00E-07 M)	Response Unit (RU) (MvfR protein (MvfRC87); Concentration 1.00E-08 M)	Response Unit (RU) (MvfR protein (MvfRC87); Concentration 3.16E-06 M)	Response Unit (RU) (MvfR protein (MvfRC87); Concentration 3.16E-07 M)	Response Unit (RU) (MvfR protein (MvfRC87); Concentration 3.16E-08 M)
Cc1cc(F)ccc1OCC(=O)Nc1ccc(C#N)cc1 [G5]	98%	98%	63%	83%	114%	111%	114%	54%	–	–	–	–	–	–	–
Cc1cc(F)ccc1NC(C)C(=O)Nc1ccc(C#N)cc1 (stereo not drawn) [G6]	87%	110%	152%	–	106%	131%	115%	–	–	–	–	–	–	–	–
N#Cc1ccc(NC(=O)CNc2ccc(F)cc2)cc1 [G8]	63%	86%	112%	–	87%	108%	124%	–	–	–	–	–	–	–	–
Cc1ccccc1NCC(=O)Nc1ccc(C#N)cc1 [G9]	93%	94%	64%	59%	76%	92%	124%	–	–	–	–	–	–	–	–
Cc1cc(F)ccc1NCC(=O)Nc1ccc(C#N)cc1 [M17]	32%	67%	101%	135%	3%	17%	11%	100%	18.8 RU	6.7 RU	1.3 RU	0.7 RU	12.6 RU	3 RU	0.7 RU
